Converted amounts (≈) assume the structure as drawn.
Test system: Mannheimia haemolytica
Experiment: minimum inhibitory concentration (MIC)
Description: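 Broth microdilution MIC (Sensititre BOPO7F bovine plate, CLSI methods) of 19 antimicrobials against field isolates of P. multocida, M. haemolytica, H. somni (deep nasopharyngeal swabs) and E. coli, Enterococcus spp. (rectal swabs) from weaned dairy heifers. Incubation 16-24 h at 35 C. MIC is the lowest concentration preventing visible growth. Values with <= or > lie at the tested range limits. Trimethoprim-sulfamethoxazole is given as the trimethoprim component of a 1:19 mixture.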

CS(=O)(=O)c1ccc([C@@H](O)[C@@H](CF)NC(=O)C(Cl)Cl)cc1 [Florfenicol]
Conditions | minimum inhibitory concentration [mg/L]
isolate (source animal id): 8 | 1 (≈ 2.79 µM)
isolate (source animal id): 13 | 1 (≈ 2.79 µM)
isolate (source animal id): 18 | 2 (≈ 5.58 µM)
isolate (source animal id): 21 | 2 (≈ 5.58 µM)
isolate (source animal id): 25 | 2 (≈ 5.58 µM)
isolate (source animal id): 27 | 1 (≈ 2.79 µM)
isolate (source animal id): 28 | 1 (≈ 2.79 µM)
isolate (source animal id): 30 | 1 (≈ 2.79 µM)
isolate (source animal id): 31 | 1 (≈ 2.79 µM)
isolate (source animal id): 32 | 1 (≈ 2.79 µM)
isolate (source animal id): 34 | 1 (≈ 2.79 µM)
isolate (source animal id): 36 | 1 (≈ 2.79 µM)
isolate (source animal id): 37 | 1 (≈ 2.79 µM)
isolate (source animal id): 40 | 1 (≈ 2.79 µM)
isolate (source animal id): 41 | 1 (≈ 2.79 µM)
isolate (source animal id): 43 | 2 (≈ 5.58 µM)
isolate (source animal id): 46 | 1 (≈ 2.79 µM)
isolate (source animal id): 49 | 1 (≈ 2.79 µM)
isolate (source animal id): 50 | 1 (≈ 2.79 µM)
isolate (source animal id): 51 | 1 (≈ 2.79 µM)
isolate (source animal id): 52 | 1 (≈ 2.79 µM)
isolate (source animal id): 53 | 2 (≈ 5.58 µM)
isolate (source animal id): 55 | 1 (≈ 2.79 µM)
isolate (source animal id): 56 | 1 (≈ 2.79 µM)
isolate (source animal id): 57 | > 8
isolate (source animal id): 100 | 2 (≈ 5.58 µM)
isolate (source animal id): 103 | 1 (≈ 2.79 µM)
isolate (source animal id): 107 | 2 (≈ 5.58 µM)
isolate (source animal id): 108 | 2 (≈ 5.58 µM)
isolate (source animal id): 112 | > 8
isolate (source animal id): 113 | > 8
isolate (source animal id): 121 | 2 (≈ 5.58 µM)
isolate (source animal id): 122 | 2 (≈ 5.58 µM)
isolate (source animal id): 123 | > 8
isolate (source animal id): 126 | > 8
isolate (source animal id): 133 | > 8
isolate (source animal id): 135 | > 8
isolate (source animal id): 138 | > 8
isolate (source animal id): 141 | > 8
isolate (source animal id): 142 | 2 (≈ 5.58 µM)
isolate (source animal id): 145 | > 8
isolate (source animal id): 149 | 0.5 (≈ 1.4 µM)
isolate (source animal id): 151 | 0.5 (≈ 1.4 µM)
isolate (source animal id): 152 | 2 (≈ 5.58 µM)
isolate (source animal id): 154 | 0.5 (≈ 1.4 µM)
isolate (source animal id): 159 | > 8
isolate (source animal id): 162 | > 8
isolate (source animal id): 170 | > 8
isolate (source animal id): 171 | 1 (≈ 2.79 µM)
isolate (source animal id): 172 | > 8
isolate (source animal id): 173 | 1 (≈ 2.79 µM)
isolate (source animal id): 179 | > 8
isolate (source animal id): 180 | > 8
isolate (source animal id): 183 | > 8
isolate (source animal id): 186 | > 8
isolate (source animal id): 187 | > 8
isolate (source animal id): 188 | > 8
isolate (source animal id): 190 | 1 (≈ 2.79 µM)
isolate (source animal id): 191 | > 8
isolate (source animal id): 192 | 1 (≈ 2.79 µM)
isolate (source animal id): 201 | > 8
isolate (source animal id): 202 | 1 (≈ 2.79 µM)
isolate (source animal id): 209 | 1 (≈ 2.79 µM)
isolate (source animal id): 211 | > 8
isolate (source animal id): 220 | > 8
isolate (source animal id): 221 | > 8
isolate (source animal id): 223 | > 8
isolate (source animal id): 233 | 2 (≈ 5.58 µM)
isolate (source animal id): 237 | 1 (≈ 2.79 µM)
isolate (source animal id): 241 | 2 (≈ 5.58 µM)
isolate (source animal id): 252 | 2 (≈ 5.58 µM)
isolate (source animal id): 253 | 2 (≈ 5.58 µM)
isolate (source animal id): 259 | > 8
isolate (source animal id): 260 | 2 (≈ 5.58 µM)
isolate (source animal id): 262 | 2 (≈ 5.58 µM)
isolate (source animal id): 282 | > 8
isolate (source animal id): 287 | 2 (≈ 5.58 µM)
isolate (source animal id): 288 | 0.5 (≈ 1.4 µM)
isolate (source animal id): 291 | 0.5 (≈ 1.4 µM)
isolate (source animal id): 293 | 2 (≈ 5.58 µM)
isolate (source animal id): 298 | 8 (≈ 22.3 µM)
isolate (source animal id): 299 | > 8
isolate (source animal id): 300 | 1 (≈ 2.79 µM)
isolate (source animal id): 302 | > 8
isolate (source animal id): 304 | 8 (≈ 22.3 µM)
isolate (source animal id): 306 | 0.5 (≈ 1.4 µM)
isolate (source animal id): 308 | 0.5 (≈ 1.4 µM)
isolate (source animal id): 309 | 0.5 (≈ 1.4 µM)
isolate (source animal id): 313 | 2 (≈ 5.58 µM)
isolate (source animal id): 318 | 1 (≈ 2.79 µM)
isolate (source animal id): 320 | 1 (≈ 2.79 µM)
isolate (source animal id): 321 | 2 (≈ 5.58 µM)
isolate (source animal id): 323 | > 8
isolate (source animal id): 324 | 2 (≈ 5.58 µM)
isolate (source animal id): 326 | 2 (≈ 5.58 µM)
isolate (source animal id): 328 | 2 (≈ 5.58 µM)
isolate (source animal id): 329 | 2 (≈ 5.58 µM)
isolate (source animal id): 333 | 2 (≈ 5.58 µM)
isolate (source animal id): 335 | 2 (≈ 5.58 µM)
isolate (source animal id): 338 | 2 (≈ 5.58 µM)

CC1(C)S[C@@H]2[C@H](NC(=O)Cc3ccccc3)C(=O)N2[C@H]1C(=O)O [Penicillin]
Conditions | minimum inhibitory concentration [mg/L]
isolate (source animal id): 8 | 0.25 (≈ 0.748 µM)
isolate (source animal id): 13 | 0.25 (≈ 0.748 µM)
isolate (source animal id): 18 | ≤ 0.12
isolate (source animal id): 21 | 0.25 (≈ 0.748 µM)
isolate (source animal id): 25 | 0.25 (≈ 0.748 µM)
isolate (source animal id): 27 | 0.25 (≈ 0.748 µM)
isolate (source animal id): 28 | > 8
isolate (source animal id): 30 | ≤ 0.12
isolate (source animal id): 31 | > 8
isolate (source animal id): 32 | ≤ 0.12
isolate (source animal id): 34 | ≤ 0.12
isolate (source animal id): 36 | ≤ 0.12
isolate (source animal id): 37 | ≤ 0.12
isolate (source animal id): 40 | ≤ 0.12
isolate (source animal id): 41 | ≤ 0.12
isolate (source animal id): 43 | 0.25 (≈ 0.748 µM)
isolate (source animal id): 46 | ≤ 0.12
isolate (source animal id): 49 | ≤ 0.12
isolate (source animal id): 50 | > 8
isolate (source animal id): 51 | 0.25 (≈ 0.748 µM)
isolate (source animal id): 52 | ≤ 0.12
isolate (source animal id): 53 | ≤ 0.12
isolate (source animal id): 55 | ≤ 0.12
isolate (source animal id): 56 | ≤ 0.12
isolate (source animal id): 57 | 0.25 (≈ 0.748 µM)
isolate (source animal id): 100 | ≤ 0.12
isolate (source animal id): 103 | ≤ 0.12
isolate (source animal id): 107 | ≤ 0.12
isolate (source animal id): 108 | ≤ 0.12
isolate (source animal id): 112 | 0.25 (≈ 0.748 µM)
isolate (source animal id): 113 | 0.5 (≈ 1.5 µM)
isolate (source animal id): 121 | > 8
isolate (source animal id): 122 | 0.25 (≈ 0.748 µM)
isolate (source animal id): 123 | 1 (≈ 2.99 µM)
isolate (source animal id): 126 | > 8
isolate (source animal id): 133 | 0.5 (≈ 1.5 µM)
isolate (source animal id): 135 | 0.25 (≈ 0.748 µM)
isolate (source animal id): 138 | > 8
isolate (source animal id): 141 | ≤ 0.12
isolate (source animal id): 142 | 0.25 (≈ 0.748 µM)
isolate (source animal id): 145 | 0.25 (≈ 0.748 µM)
isolate (source animal id): 149 | ≤ 0.12
isolate (source animal id): 151 | 0.25 (≈ 0.748 µM)
isolate (source animal id): 152 | ≤ 0.12
isolate (source animal id): 154 | 0.5 (≈ 1.5 µM)
isolate (source animal id): 159 | > 8
isolate (source animal id): 162 | > 8
isolate (source animal id): 170 | > 8
isolate (source animal id): 171 | 0.5 (≈ 1.5 µM)
isolate (source animal id): 172 | > 8
isolate (source animal id): 173 | > 8
isolate (source animal id): 179 | > 8
isolate (source animal id): 180 | > 8
isolate (source animal id): 183 | > 8
isolate (source animal id): 186 | > 8
isolate (source animal id): 187 | > 8
isolate (source animal id): 188 | > 8
isolate (source animal id): 190 | 0.5 (≈ 1.5 µM)
isolate (source animal id): 191 | > 8
isolate (source animal id): 192 | 0.25 (≈ 0.748 µM)
isolate (source animal id): 201 | > 8
isolate (source animal id): 202 | > 8
isolate (source animal id): 209 | > 8
isolate (source animal id): 211 | > 8
isolate (source animal id): 220 | > 8
isolate (source animal id): 221 | > 8
isolate (source animal id): 223 | > 8
isolate (source animal id): 233 | > 8
isolate (source animal id): 237 | 0.25 (≈ 0.748 µM)
isolate (source animal id): 241 | > 8
isolate (source animal id): 252 | 0.25 (≈ 0.748 µM)
isolate (source animal id): 253 | 0.25 (≈ 0.748 µM)
isolate (source animal id): 259 | > 8
isolate (source animal id): 260 | ≤ 0.12
isolate (source animal id): 262 | > 8
isolate (source animal id): 282 | > 8
isolate (source animal id): 287 | 0.25 (≈ 0.748 µM)
isolate (source animal id): 288 | 0.5 (≈ 1.5 µM)
isolate (source animal id): 291 | ≤ 0.12
isolate (source animal id): 293 | 0.25 (≈ 0.748 µM)
isolate (source animal id): 298 | ≤ 0.12
isolate (source animal id): 299 | 0.25 (≈ 0.748 µM)
isolate (source animal id): 300 | ≤ 0.12
isolate (source animal id): 302 | ≤ 0.12
isolate (source animal id): 304 | ≤ 0.12
isolate (source animal id): 306 | ≤ 0.12
isolate (source animal id): 308 | ≤ 0.12
isolate (source animal id): 309 | ≤ 0.12
isolate (source animal id): 313 | 0.25 (≈ 0.748 µM)
isolate (source animal id): 318 | ≤ 0.12
isolate (source animal id): 320 | ≤ 0.12
isolate (source animal id): 321 | ≤ 0.12
isolate (source animal id): 323 | 0.25 (≈ 0.748 µM)
isolate (source animal id): 324 | ≤ 0.12
isolate (source animal id): 326 | ≤ 0.12
isolate (source animal id): 328 | 0.25 (≈ 0.748 µM)
isolate (source animal id): 329 | 0.25 (≈ 0.748 µM)
isolate (source animal id): 333 | ≤ 0.12
isolate (source animal id): 335 | 0.5 (≈ 1.5 µM)
isolate (source animal id): 338 | 0.25 (≈ 0.748 µM)
